In patent publication US20100130457A1, “Phenothiazine Derivatives for Treatment of Asthma” (Immune Control, Inc., priority 2008, published 2010):
“Also recorded” adds a separate entry of the source. Where two headings read alike, the source gives them in different places.

Legend:
human small airway = assay: Human precision-cut lung slices (PCLS), small airway contraction
Procedure: Human precision-cut lung slices (PCLS) permit evaluation of pharmacological responses of novel drug candidates applied directly to their target tissue.
Human precision-cut lung slices (PCLS, 250 μm thick) containing a small airway were contracted to carbachol, histamine and passively sensitization to induce airway closure±pre-incubation with ICI-735 (10 μM; 2 hours); FIG. 13. For example, human lung slices containing a small airway were incubated overnight with either negative control IgG (4 μg/mL) or positive control IgE (4 μg/mL). The slices were tested as follows: 1) IgG+anti-IgE; 2) IgE+anti-IgE; 3) IgE+Dexamethasone (1 μM)+anti-IgE; and 4) IgE+ICI-735 (10 μM) +anti-IgE. Dexamethasone and ICI-735 were pre-incubated 2 hours prior to anti-IgE; anti-IgE is used to crosslink antibodies and induce mast cell degranulation, which is believed to release histamine and cause airway contract. […]
Human lung tissue contains multiple cell types, including mast cells, that localize in the region of airway smooth muscle, and that increase in number in individuals with asthma. Cross-linking of Fcε;R1 receptors on surfaces of mast cells leads to release of granules that contain smooth muscle contractile agonists, including histamine and leukotrienes.
To test C-027 as a blocker of histamine-induced bronchoconstriction, lung slices were incubated for 2 hours with C-027, and small airway contraction was evaluated after addition of increasing concentrations of histamine.

MPR1-MDCK = MPR1-MDCK permeability, potential to cross the blood-brain barrier; format: in vitro ADME; conditions: for % Recovery A-B / Papp A-B: A-B direction; for % Recovery B-A / Papp B-A: B-A direction; for Efflux: efflux ratio; for Brain Penetration Classification: from A-B Papp and efflux ratio
From the text: (§1) A criterion for selecting an agent for proceeding to clinical trials is whether the compound crosses the blood-brain barrier. […] Fluphenazine (ICI-01175) is used as a control compound that has the potential to cross the blood-brain barrier. Table 1 summarizes the results of the test compounds for their potential to cross the blood-brain barrier.

RPMI 8226 = assay: Inhibition of proliferation of RPMI 8226 cells; format: cell-based, human; conditions: RPMI cells in vitro
From the text: The next set of experiments was designed to assess compounds that have low levels of brain penetration for the ability of the test compounds to inhibit cellular proliferation. An exemplary in vitro assay is to screen for the ability of the test compounds to inhibit proliferation of the B-cell neoplastic cell line RPMI 8226 (a plasmacytoma derived from a multiple myeloma patient (Matsuoka, et al., 1967, Proc. Soc. Exp. Biol. Med. 125: 1246-1250). However other cell line can be used such as, U266 (established from an IgE-secreting myeloma patient (Nilsson, et al., 1970, Clin. Exp. Immunol., 7: 477-489) and ARH77 (an EBV transformed plasma cell leukemia (Burk, et al., 1978, Cancer Res. 38: 2508-2513).
FIG. 1 is a graph depicting the effects on the test compounds on RPMI cell viability.

[1] = MPR1-MDCK permeability, potential to cross the blood-brain barrier; format: in vitro ADME; conditions: dog, MDCK
From the text: as §1

% Recovery A-B (MPR1-MDCK)	Papp A-B (MPR1-MDCK)	% Recovery B-A (MPR1-MDCK)	Papp B-A (MPR1-MDCK)	Efflux (MPR1-MDCK)	Structure (SMILES)	Brain Penetration Classification (MPR1-MDCK)	also measured
					C[N+](C)(C)CCOC(N)=O [Carbachol, reference compound]		bronchoconstriction (human small airway; 10^−8 to 10^−5 M, dose-dependent): up to 70%
					C[C@@H]1C[C@H]2[C@@H]3CCC4=CC(=O)C=C[C@]4(C)[C@@]3(F)[C@@H](O)C[C@]2(C)[C@@]1(O)C(=O)CO [Dexamethasone, reference compound]		airway contraction to IgE/anti-IgE (passive sensitization, mast cell degranulation) (human small airway; ICI-735 10 μM, dexamethasone 1 μM, pre-incubated 2 hours): no effect
17%	0.66 ×10⁻⁶ cm/s	15%	4.47 ×10⁻⁶ cm/s	6.8	FC(F)(F)c1ccc2c(c1)N(CCCN1CCNCC1)c1ccccc1S2 [ICI-00685]	Low (A-B Papp > 3.0 and Efflux Ratio > 10: Low)	
85%	0.08 ×10⁻⁶ cm/s	77%	12.3 ×10⁻⁶ cm/s	154	CN(C)S(=O)(=O)c1ccc2c(c1)N(CCCN1CCN(CCN)CC1)c1ccccc1S2 [ICI-00715]	Low (A-B Papp > 3.0 and Efflux Ratio > 10: Low)	ability to inhibit proliferation of RPMI cells (RPMI 8226): able to inhibit
15%	1.06 ×10⁻⁶ cm/s	40%	3.33 ×10⁻⁶ cm/s	3.1	CN(C)CCN1CCN(CCCN2c3ccccc3Sc3ccc(C(F)(F)F)cc32)CC1 [ICI-00738]	Low (A-B Papp > 3.0 and Efflux Ratio > 10: Low)	
59%	0.21 ×10⁻⁶ cm/s	41%	24.9 ×10⁻⁶ cm/s	116	CNCC(=O)NCCN1CCN(CCCN2c3ccccc3Sc3ccc(C(F)(F)F)cc32)CC1 [ICI-00758]	Low (A-B Papp > 3.0 and Efflux Ratio > 10: Low)	
46%	<0.25 ×10⁻⁶ cm/s	40%	18.8 ×10⁻⁶ cm/s	>75	NCCCN1CCN(CCCN2c3ccccc3Sc3ccc(C(F)(F)F)cc32)CC1 [ICI-00760]	Low (A-B Papp > 3.0 and Efflux Ratio > 10: Low)	
					NCC(N)C(=O)NCCN1CCN(CCCN2c3ccccc3Sc3ccc(C(F)(F)F)cc32)CC1 (stereo not drawn) [ICI-761]		ability to inhibit proliferation of RPMI cells (RPMI 8226): able to inhibit
61%	0.13 ×10⁻⁶ cm/s	22%	15.7 ×10⁻⁶ cm/s	119	NCC(=O)NCCCN1CCN(CCCN2c3ccccc3Sc3ccc(C(F)(F)F)cc32)CC1 [ICI-00822]	Low (A-B Papp > 3.0 and Efflux Ratio > 10: Low)	
57%	<0.24 ×10⁻⁶ cm/s	46%	19.4 ×10⁻⁶ cm/s	>80	CNCC(=O)NCCCN1CCN(CCCN2c3ccccc3Sc3ccc(C(F)(F)F)cc32)CC1 [ICI-00823]	Low (A-B Papp > 3.0 and Efflux Ratio > 10: Low)	
11%	1.77 ×10⁻⁶ cm/s	21%	13.8 ×10⁻⁶ cm/s	7.8	FC(F)(F)c1ccc2c(c1)N(CCCC1CCNCC1)c1ccccc1S2 [ICI-00824]	Low (A-B Papp > 3.0 and Efflux Ratio > 10: Low)	
3%	<0.36 ×10⁻⁶ cm/s	1%	<0.49 ×10⁻⁶ cm/s		NCCN1CCC(CCCN2c3ccccc3Sc3ccc(C(F)(F)F)cc32)CC1 [ICI-00846]	Low (A-B Papp > 3.0 and Efflux Ratio > 10: Low)	
9%	0.56 ×10⁻⁶ cm/s	31%	9.56 ×10⁻⁶ cm/s	17	NCCCN1CCC(CCCN2c3ccccc3Sc3ccc(C(F)(F)F)cc32)CC1 [ICI-00847]	Low (A-B Papp > 3.0 and Efflux Ratio > 10: Low)	ability to inhibit proliferation of RPMI cells (RPMI 8226; listed as ICI-847): able to inhibit; also recorded: active
22%	0.24 ×10⁻⁶ cm/s	21%	15.5 ×10⁻⁶ cm/s	64	NCC(=O)NCCN1CCC(CCCN2c3ccccc3Sc3ccc(C(F)(F)F)cc32)CC1 [ICI-00848]	Low (A-B Papp > 3.0 and Efflux Ratio > 10: Low)	ability to inhibit proliferation of RPMI cells (RPMI 8226): able to inhibit
11%	<1 ×10⁻⁶ cm/s	26%	5.1 ×10⁻⁶ cm/s	>5.1	CNCC(=O)NCCN1CCC(CCCN2c3ccccc3Sc3ccc(C(F)(F)F)cc32)CC1 [ICI-00849]	Low (A-B Papp > 3.0 and Efflux Ratio > 10: Low)	ability to inhibit proliferation of RPMI cells (RPMI 8226): able to inhibit
11%	0.94 ×10⁻⁶ cm/s	9%	4.94 ×10⁻⁶ cm/s	5.3	CC(=O)NCCN1CCC(CCCN2c3ccccc3Sc3ccc(C(F)(F)F)cc32)CC1 [ICI-00850]	Low (A-B Papp > 3.0 and Efflux Ratio > 10: Low)	
15%	0.75 ×10⁻⁶ cm/s	29%	8.6 ×10⁻⁶ cm/s	11	FC(F)(F)c1ccc2c(c1)N(CCCCN1CCNCC1)c1ccccc1S2 [ICI-00890]	Low (A-B Papp > 3.0 and Efflux Ratio > 10: Low)	
56%	0.22 ×10⁻⁶ cm/s	56%	30 ×10⁻⁶ cm/s	136	N#Cc1ccc2c(c1)N(CCCN1CCN(CCN)CC1)c1ccccc1S2 [ICI-00894]	Low (A-B Papp > 3.0 and Efflux Ratio > 10: Low)	
					OCCN1CCN(CCCN2c3ccccc3Sc3ccc(C(F)(F)F)cc32)CC1 [ICI-01175, Fluphenazine, reference compound]	High (A-B Papp > 3.0 and Efflux Ratio < 3.0: High)	Papp A→B ([1]; A-B direction): 8.7 ×10⁻⁶ cm/s; recovery ([1]; A-B direction, read-out: % Recovery A-B): 24%; Papp B→A ([1]; B-A direction): 9.63 ×10⁻⁶ cm/s; recovery ([1]; B-A direction, read-out: % Recovery B-A): 43%; efflux ratio ([1]; efflux ratio): 1.1
29%	<0.29 ×10⁻⁶ cm/s	39%	12.5 ×10⁻⁶ cm/s	>43	CNCC(=O)NCCCN1CCC(CCCN2c3ccccc3Sc3ccc(C(F)(F)F)cc32)CC1 [ICI-01259]	Low (A-B Papp > 3.0 and Efflux Ratio > 10: Low)	ability to inhibit proliferation of RPMI cells (RPMI 8226): able to inhibit
55%	0.32 ×10⁻⁶ cm/s	47%	26.4 ×10⁻⁶ cm/s	82	NCC(=O)NCCCN1CCC(CCCN2c3ccccc3Sc3ccc(C(F)(F)F)cc32)CC1 [ICI-01260]	Low (A-B Papp > 3.0 and Efflux Ratio > 10: Low)	ability to inhibit proliferation of RPMI cells (RPMI 8226; listed as ICI-1260): able to inhibit; also recorded: active
3%	<0.36 ×10⁻⁶ cm/s	26%	0.64 ×10⁻⁶ cm/s	>1.8	CN(C)CCCN1CCC(CCCN2c3ccccc3Sc3ccc(C(F)(F)F)cc32)CC1 [ICI-01505]	Low (A-B Papp > 3.0 and Efflux Ratio > 10: Low)	
					CC(C)NCC(O)c1ccc(O)c(O)c1 (stereo not drawn) [isoproterenol, reference compound]		relaxation of maximally contracted airway smooth muscle (human small airway; in the presence of 30 μM CCh, isoproterenol 10 μM): comparable degree of relaxation
